Calls of active or inactive are those of the source. The calls are words filed in the database; no cut-off is given here.
Test system: UT7
Assay: Antiproliferative activity against stem cell factor-stimulated human UT7 cells
Format: functional, cell-based
Settings: not given
Work on `Cc1ccc(C(=O)NCCC2CCCCC2)cc1C(=O)Nc1ccc(N)nc1` yielded an IC50 of 14 nM.
In the case of `Cc1ccc(C(=O)Nc2cccc(C(F)(F)F)c2)cc1C(=O)Nc1ccc(N)nc1`, the IC50 is reported as 11 nM.
`Cc1ccc(C(=O)Nc2cccc(C(F)(F)F)c2)cc1C(=O)Nc1cncnc1` gave an IC50 of 30 nM.
In the case of `Cc1ccc(C(=O)NCCCC2CCCCC2)cc1C(=O)Nc1ccc(N)nc1`, the IC50 is reported as 0.3 nM.
Compound `Cc1ccc(C(=O)NCC2CCCCC2)cc1C(=O)Nc1ccc(N)nc1` has an IC50 of 143 nM.
For `CC(=O)Nc1ccc(NC(=O)c2cc(C(=O)Nc3cccc(C(F)(F)F)c3)ccc2C)cn1`, the IC50 was 12 nM.
For `Cc1ccc(C(=O)NCCN2CCCC2)cc1C(=O)Nc1ccc(N)nc1`, the Activity was “inactive”.

Test system: not listed separately
Assay: Cmax in Sprague-Dawley rat at 10 mg/kg, po
Format: ADME, organism-based
Set-up: dose 10 mg/kg, route oral
Settings: in vivo
Compound `Cc1ccc(C(=O)Nc2cccc(C(F)(F)F)c2)cc1C(=O)Nc1ccc(N)nc1` has a Cmax of 956 ng/mL.
Work on `Cc1ccc(C(=O)Nc2cccc(C(F)(F)F)c2)cc1C(=O)Nc1cncnc1` yielded a Cmax of 8 ng/mL.

Test system: not listed separately
Assay: Selectivity ratio of IC50 for p38alpha to IC50 for c-kit
Settings: not given
Work on `Cc1ccc(C(=O)NCCC2CCCCC2)cc1C(=O)Nc1ccc(N)nc1` yielded a Ratio IC50 of 5.
For `Cc1ccc(C(=O)Nc2cccc(C(F)(F)F)c2)cc1C(=O)Nc1ccc(N)nc1`, the Ratio IC50 was 3.
`Cc1ccc(C(=O)Nc2cccc(C(F)(F)F)c2)cc1C(=O)Nc1cncnc1` showed a Ratio IC50 of 47.
With `Cc1ccc(C(=O)NCCCC2CCCCC2)cc1C(=O)Nc1ccc(N)nc1` the Ratio IC50 was 6.
`CC(=O)Nc1ccc(NC(=O)c2cc(C(=O)Nc3cccc(C(F)(F)F)c3)ccc2C)cn1` gave a Ratio IC50 of 22.

Test system: not listed separately
Assay: AUC in Sprague-Dawley rat at 10 mg/kg, po
Format: ADME, organism-based
Set-up: dose 10 mg/kg, route oral
Settings: plasma
Compound `Cc1ccc(C(=O)Nc2cccc(C(F)(F)F)c2)cc1C(=O)Nc1ccc(N)nc1` has an AUC of 6150 ng·h/mL.
`Cc1ccc(C(=O)Nc2cccc(C(F)(F)F)c2)cc1C(=O)Nc1cncnc1` gave an AUC of 75 ng·h/mL.

Test system: not listed separately
Assay: Clearance in Sprague-Dawley rat at 2 mg/kg, iv
Format: ADME, organism-based
Set-up: dose 2 mg/kg, route intravenous
Settings: in vivo
In the case of `Cc1ccc(C(=O)Nc2cccc(C(F)(F)F)c2)cc1C(=O)Nc1ccc(N)nc1`, the clearance is reported as 14.2 mL/min/kg.
`Cc1ccc(C(=O)Nc2cccc(C(F)(F)F)c2)cc1C(=O)Nc1cncnc1` showed a clearance of 28 mL/min/kg.
In the case of `CC(=O)Nc1ccc(NC(=O)c2cc(C(=O)Nc3cccc(C(F)(F)F)c3)ccc2C)cn1`, the clearance is reported as 15.4 mL/min/kg.

Target: T1, Mitogen-activated protein kinase 14 (Homo sapiens, UniProt Q16539)
T1 sequence (Q16539 whole entry): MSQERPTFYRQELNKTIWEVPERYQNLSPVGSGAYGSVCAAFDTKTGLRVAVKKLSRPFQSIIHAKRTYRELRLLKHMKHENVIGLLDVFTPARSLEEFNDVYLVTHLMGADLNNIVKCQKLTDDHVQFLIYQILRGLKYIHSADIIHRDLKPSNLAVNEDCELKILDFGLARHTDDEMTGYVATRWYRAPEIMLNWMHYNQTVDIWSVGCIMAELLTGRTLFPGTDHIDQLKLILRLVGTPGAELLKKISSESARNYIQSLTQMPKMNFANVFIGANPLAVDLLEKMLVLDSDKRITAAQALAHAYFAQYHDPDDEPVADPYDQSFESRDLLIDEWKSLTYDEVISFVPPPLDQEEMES
Settings: not given
For `Cc1ccc(C(=O)NCC2CCCCC2)cc1C(=O)Nc1ccc(N)nc1`, the Activity was “inactive”.
In the case of `Cc1ccc(C(=O)NCCN2CCCC2)cc1C(=O)Nc1ccc(N)nc1`, the Activity is reported as “inactive”.

Test system: not listed separately
Assay: Metabolic stability in Sprague-Dawley rat liver microsomes assessed as intrinsic clearance at 1 uM
Format: ADME, Microsome
Settings: read-out: Stability
For `Cc1ccc(C(=O)Nc2cccc(C(F)(F)F)c2)cc1C(=O)Nc1ccc(N)nc1`, the microsomal CLint at 1 µM was under 50 µL/min/mg.
In the case of `Cc1ccc(C(=O)Nc2cccc(C(F)(F)F)c2)cc1C(=O)Nc1cncnc1`, the microsomal CLint at 1 µM is reported as 48 µL/min/mg.
With `CC(=O)Nc1ccc(NC(=O)c2cc(C(=O)Nc3cccc(C(F)(F)F)c3)ccc2C)cn1` the microsomal CLint at 1 µM was under 100 µL/min/mg.

Test system: not listed separately
Assay: Metabolic stability in human liver microsomes assessed as intrinsic clearance at 1 uM
Format: ADME, Microsome
Settings: read-out: Stability
`Cc1ccc(C(=O)Nc2cccc(C(F)(F)F)c2)cc1C(=O)Nc1ccc(N)nc1` gave a microsomal CLint at 1 µM of under 100 µL/min/mg.
Work on `Cc1ccc(C(=O)Nc2cccc(C(F)(F)F)c2)cc1C(=O)Nc1cncnc1` yielded a microsomal CLint at 1 µM of 38 µL/min/mg.
Compound `CC(=O)Nc1ccc(NC(=O)c2cc(C(=O)Nc3cccc(C(F)(F)F)c3)ccc2C)cn1` has a microsomal CLint at 1 µM of under 100 µL/min/mg.

Test system: not listed separately
Assay: Selectivity ratio of IC50 for Src to IC50 for c-kit
Settings: not given
For `Cc1ccc(C(=O)Nc2cccc(C(F)(F)F)c2)cc1C(=O)Nc1cncnc1`, the Ratio IC50 was 33.

Test system: not listed separately
Assay: Bioavailability in Sprague-Dawley rat at 10 mg/kg, po
Format: ADME, organism-based
Settings: in vivo
`Cc1ccc(C(=O)Nc2cccc(C(F)(F)F)c2)cc1C(=O)Nc1ccc(N)nc1` showed a bioavailability of 53%.
`Cc1ccc(C(=O)Nc2cccc(C(F)(F)F)c2)cc1C(=O)Nc1cncnc1` gave a bioavailability of 1%.

Target: T1, Mitogen-activated protein kinase 14
Settings: not given
Remark: another data set of the same source
For `Cc1ccc(C(=O)NCCC2CCCCC2)cc1C(=O)Nc1ccc(N)nc1`, the IC50 was 181 nM.
With `Cc1ccc(C(=O)Nc2cccc(C(F)(F)F)c2)cc1C(=O)Nc1ccc(N)nc1` the IC50 was 24 nM.
For `Cc1ccc(C(=O)Nc2cccc(C(F)(F)F)c2)cc1C(=O)Nc1cncnc1`, the IC50 was 1750 nM.
Work on `Cc1ccc(C(=O)NCCCC2CCCCC2)cc1C(=O)Nc1ccc(N)nc1` yielded an IC50 of 57.8 nM.
For `CC(=O)Nc1ccc(NC(=O)c2cc(C(=O)Nc3cccc(C(F)(F)F)c3)ccc2C)cn1`, the IC50 was 45 nM.

Test system: not listed separately
Assay: Selectivity ratio of IC50 for KDR to IC50 for c-kit
Settings: not given
In the case of `Cc1ccc(C(=O)NCCC2CCCCC2)cc1C(=O)Nc1ccc(N)nc1`, the Ratio IC50 is reported as over 714.
`Cc1ccc(C(=O)Nc2cccc(C(F)(F)F)c2)cc1C(=O)Nc1ccc(N)nc1` showed a Ratio IC50 of 67.
Work on `Cc1ccc(C(=O)Nc2cccc(C(F)(F)F)c2)cc1C(=O)Nc1cncnc1` yielded a Ratio IC50 of 95.
Work on `Cc1ccc(C(=O)NCCCC2CCCCC2)cc1C(=O)Nc1ccc(N)nc1` yielded a Ratio IC50 of over 556.
Work on `CC(=O)Nc1ccc(NC(=O)c2cc(C(=O)Nc3cccc(C(F)(F)F)c3)ccc2C)cn1` yielded a Ratio IC50 of 57.

Target: Mast/stem cell growth factor receptor Kit (Homo sapiens, UniProt P10721)
Sequence (P10721 whole entry): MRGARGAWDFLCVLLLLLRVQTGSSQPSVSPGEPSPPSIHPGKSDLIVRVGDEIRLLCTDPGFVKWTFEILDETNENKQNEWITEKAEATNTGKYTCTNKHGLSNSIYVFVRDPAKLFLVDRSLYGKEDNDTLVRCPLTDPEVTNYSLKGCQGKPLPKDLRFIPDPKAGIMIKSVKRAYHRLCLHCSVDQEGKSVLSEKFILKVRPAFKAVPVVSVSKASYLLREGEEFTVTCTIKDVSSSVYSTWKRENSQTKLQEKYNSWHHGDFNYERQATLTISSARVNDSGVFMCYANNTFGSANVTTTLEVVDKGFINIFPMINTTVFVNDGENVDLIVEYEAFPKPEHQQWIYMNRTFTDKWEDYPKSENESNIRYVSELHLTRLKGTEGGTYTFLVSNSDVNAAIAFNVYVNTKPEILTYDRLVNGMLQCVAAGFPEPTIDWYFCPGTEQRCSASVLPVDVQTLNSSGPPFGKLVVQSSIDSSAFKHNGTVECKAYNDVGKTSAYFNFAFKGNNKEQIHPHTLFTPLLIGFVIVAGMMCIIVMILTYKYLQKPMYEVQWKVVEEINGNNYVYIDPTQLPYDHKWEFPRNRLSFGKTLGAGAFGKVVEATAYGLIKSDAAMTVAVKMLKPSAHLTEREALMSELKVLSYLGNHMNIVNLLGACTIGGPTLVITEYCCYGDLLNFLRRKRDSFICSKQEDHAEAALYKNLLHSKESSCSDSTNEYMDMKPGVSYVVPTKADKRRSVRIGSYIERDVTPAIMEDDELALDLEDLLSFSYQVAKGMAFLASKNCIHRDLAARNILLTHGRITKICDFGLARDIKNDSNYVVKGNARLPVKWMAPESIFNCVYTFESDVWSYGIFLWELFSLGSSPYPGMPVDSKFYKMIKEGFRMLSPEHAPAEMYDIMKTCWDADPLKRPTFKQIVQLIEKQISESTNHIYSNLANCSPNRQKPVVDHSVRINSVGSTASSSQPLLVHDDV
Assay: Inhibition of c-kit
Settings: not given
For `Cc1ccc(C(=O)NCCC2CCCCC2)cc1C(=O)Nc1ccc(N)nc1`, the IC50 was 35 nM.
Compound `Cc1ccc(C(=O)Nc2cccc(C(F)(F)F)c2)cc1C(=O)Nc1ccc(N)nc1` has an IC50 of 7 nM.
`Cc1ccc(C(=O)Nc2cccc(C(F)(F)F)c2)cc1C(=O)Nc1cncnc1` showed an IC50 of 37 nM.
`Cc1ccc(C(=O)NCCCC2CCCCC2)cc1C(=O)Nc1ccc(N)nc1` gave an IC50 of 9 nM.
Compound `Cc1ccc(C(=O)NCC2CCCCC2)cc1C(=O)Nc1ccc(N)nc1` has an IC50 of 1180 nM.
With `CC(=O)Nc1ccc(NC(=O)c2cc(C(=O)Nc3cccc(C(F)(F)F)c3)ccc2C)cn1` the IC50 was 2 nM.
Work on `Cc1ccc(C(=O)NCCN2CCCC2)cc1C(=O)Nc1ccc(N)nc1` yielded an IC50 of 3640 nM.

Test system: not listed separately
Assay: Half life in Sprague-Dawley rat at 2 mg/kg, iv
Format: ADME, organism-based
Set-up: dose 2 mg/kg, route intravenous
Settings: in vivo
`Cc1ccc(C(=O)Nc2cccc(C(F)(F)F)c2)cc1C(=O)Nc1ccc(N)nc1` showed a half-life of 3.9 h.
With `Cc1ccc(C(=O)Nc2cccc(C(F)(F)F)c2)cc1C(=O)Nc1cncnc1` the half-life was 1.1 h.
For `CC(=O)Nc1ccc(NC(=O)c2cc(C(=O)Nc3cccc(C(F)(F)F)c3)ccc2C)cn1`, the half-life was 3.3 h.

Target: Proto-oncogene tyrosine-protein kinase Src (Homo sapiens, UniProt P12931)
Sequence (P12931 2-536 limits assumed): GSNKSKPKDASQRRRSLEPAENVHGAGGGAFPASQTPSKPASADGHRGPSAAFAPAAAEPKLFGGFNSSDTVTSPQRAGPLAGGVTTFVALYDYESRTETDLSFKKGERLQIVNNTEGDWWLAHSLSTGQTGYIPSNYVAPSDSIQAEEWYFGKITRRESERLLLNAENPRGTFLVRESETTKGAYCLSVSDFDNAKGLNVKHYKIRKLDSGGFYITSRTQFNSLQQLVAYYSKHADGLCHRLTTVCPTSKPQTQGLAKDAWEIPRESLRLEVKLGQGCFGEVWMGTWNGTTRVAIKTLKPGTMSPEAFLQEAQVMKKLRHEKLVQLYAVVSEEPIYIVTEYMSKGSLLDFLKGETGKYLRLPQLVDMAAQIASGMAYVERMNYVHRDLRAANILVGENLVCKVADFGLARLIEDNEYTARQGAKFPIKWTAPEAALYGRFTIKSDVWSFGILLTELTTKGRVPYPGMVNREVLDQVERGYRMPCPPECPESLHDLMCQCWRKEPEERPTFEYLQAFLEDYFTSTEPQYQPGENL
Assay: Inhibition of Src
Settings: not given
With `Cc1ccc(C(=O)Nc2cccc(C(F)(F)F)c2)cc1C(=O)Nc1cncnc1` the IC50 was 1210 nM.

Target: Vascular endothelial growth factor receptor 2 (Homo sapiens, UniProt P35968)
Sequence (P35968 whole entry): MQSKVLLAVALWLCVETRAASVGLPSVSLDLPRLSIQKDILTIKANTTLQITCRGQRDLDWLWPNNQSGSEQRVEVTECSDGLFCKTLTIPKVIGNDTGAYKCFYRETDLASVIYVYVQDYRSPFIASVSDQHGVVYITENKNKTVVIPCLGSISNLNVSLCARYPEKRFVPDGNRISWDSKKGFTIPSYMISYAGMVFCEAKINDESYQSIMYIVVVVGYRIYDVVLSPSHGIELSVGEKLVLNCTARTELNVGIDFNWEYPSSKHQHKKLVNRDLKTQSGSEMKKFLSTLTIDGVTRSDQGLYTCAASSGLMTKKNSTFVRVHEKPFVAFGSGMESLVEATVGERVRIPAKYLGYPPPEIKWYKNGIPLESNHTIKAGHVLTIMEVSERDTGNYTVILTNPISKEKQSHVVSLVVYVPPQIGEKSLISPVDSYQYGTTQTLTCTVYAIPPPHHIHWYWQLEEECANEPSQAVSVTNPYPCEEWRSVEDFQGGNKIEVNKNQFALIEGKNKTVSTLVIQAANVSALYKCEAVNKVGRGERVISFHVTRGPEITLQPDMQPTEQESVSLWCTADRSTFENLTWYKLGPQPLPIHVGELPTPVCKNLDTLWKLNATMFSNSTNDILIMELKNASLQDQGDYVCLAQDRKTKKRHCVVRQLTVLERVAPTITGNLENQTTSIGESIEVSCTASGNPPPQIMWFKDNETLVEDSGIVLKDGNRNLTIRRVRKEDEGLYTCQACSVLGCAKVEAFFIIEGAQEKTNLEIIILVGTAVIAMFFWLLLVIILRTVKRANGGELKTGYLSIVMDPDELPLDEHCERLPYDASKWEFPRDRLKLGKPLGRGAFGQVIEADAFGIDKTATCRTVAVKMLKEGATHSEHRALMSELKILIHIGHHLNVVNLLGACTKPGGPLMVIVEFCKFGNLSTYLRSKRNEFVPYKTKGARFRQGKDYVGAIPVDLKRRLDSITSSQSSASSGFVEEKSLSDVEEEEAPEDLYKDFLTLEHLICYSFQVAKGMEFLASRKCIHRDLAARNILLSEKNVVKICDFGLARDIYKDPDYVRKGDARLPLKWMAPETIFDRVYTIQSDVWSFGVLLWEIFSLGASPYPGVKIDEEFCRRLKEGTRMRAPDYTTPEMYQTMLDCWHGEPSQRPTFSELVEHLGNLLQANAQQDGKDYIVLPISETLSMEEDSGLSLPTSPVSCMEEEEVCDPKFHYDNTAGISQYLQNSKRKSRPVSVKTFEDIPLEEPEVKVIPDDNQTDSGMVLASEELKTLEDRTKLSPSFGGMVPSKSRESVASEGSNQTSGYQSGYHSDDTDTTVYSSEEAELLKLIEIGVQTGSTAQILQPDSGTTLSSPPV
Assay: Inhibition of KDR
Settings: not given
For `Cc1ccc(C(=O)NCCC2CCCCC2)cc1C(=O)Nc1ccc(N)nc1`, the IC50 was over 25000 nM.
In the case of `Cc1ccc(C(=O)Nc2cccc(C(F)(F)F)c2)cc1C(=O)Nc1ccc(N)nc1`, the IC50 is reported as 470 nM.
Work on `Cc1ccc(C(=O)Nc2cccc(C(F)(F)F)c2)cc1C(=O)Nc1cncnc1` yielded an IC50 of 3530 nM.
`Cc1ccc(C(=O)NCCCC2CCCCC2)cc1C(=O)Nc1ccc(N)nc1` gave an IC50 of over 5000 nM.
For `Cc1ccc(C(=O)NCC2CCCCC2)cc1C(=O)Nc1ccc(N)nc1`, the Activity was “inactive”.
With `CC(=O)Nc1ccc(NC(=O)c2cc(C(=O)Nc3cccc(C(F)(F)F)c3)ccc2C)cn1` the IC50 was 114 nM.
For `Cc1ccc(C(=O)NCCN2CCCC2)cc1C(=O)Nc1ccc(N)nc1`, the Activity was “inactive”.

Test system: not listed separately
Assay: Selectivity ratio of IC50 for Lck to IC50 for c-kit
Settings: not given
For `Cc1ccc(C(=O)Nc2cccc(C(F)(F)F)c2)cc1C(=O)Nc1cncnc1`, the Ratio IC50 was 15.

Target: Tyrosine-protein kinase Lck (Homo sapiens, UniProt P06239)
Sequence (P06239 whole entry): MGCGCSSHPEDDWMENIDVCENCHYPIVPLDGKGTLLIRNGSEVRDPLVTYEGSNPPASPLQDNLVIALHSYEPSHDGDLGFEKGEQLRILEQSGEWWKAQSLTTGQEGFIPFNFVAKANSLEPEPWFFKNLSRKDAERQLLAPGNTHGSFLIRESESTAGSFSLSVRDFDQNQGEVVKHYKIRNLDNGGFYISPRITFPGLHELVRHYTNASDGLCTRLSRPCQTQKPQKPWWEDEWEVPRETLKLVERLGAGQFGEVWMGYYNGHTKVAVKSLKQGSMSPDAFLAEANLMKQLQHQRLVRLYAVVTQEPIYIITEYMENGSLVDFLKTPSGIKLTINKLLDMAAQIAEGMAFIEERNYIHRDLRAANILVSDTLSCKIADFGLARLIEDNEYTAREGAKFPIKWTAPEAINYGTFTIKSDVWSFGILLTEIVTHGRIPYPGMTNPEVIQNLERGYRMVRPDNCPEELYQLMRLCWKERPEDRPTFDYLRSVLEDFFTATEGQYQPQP
Settings: not given
`Cc1ccc(C(=O)Nc2cccc(C(F)(F)F)c2)cc1C(=O)Nc1cncnc1` gave an IC50 of 546 nM.

Test system: not listed separately
Assay: Volume of distribution at steady state in Sprague-Dawley rat at 2 mg/kg, iv
Format: ADME, organism-based
Set-up: dose 2 mg/kg, route intravenous
Settings: in vivo, read-out: Vdss
In the case of `Cc1ccc(C(=O)Nc2cccc(C(F)(F)F)c2)cc1C(=O)Nc1ccc(N)nc1`, the Vd is reported as 1.35 L/kg.
For `Cc1ccc(C(=O)Nc2cccc(C(F)(F)F)c2)cc1C(=O)Nc1cncnc1`, the Vd was 1.54 L/kg.
`CC(=O)Nc1ccc(NC(=O)c2cc(C(=O)Nc3cccc(C(F)(F)F)c3)ccc2C)cn1` showed a Vd of 1.38 L/kg.

Test system: Mus musculus
Assay: Inhibition of stem cell factor-induced histamine release in C57BL/6 mouse model of mast cell activation and systemic anaphylaxis at 100 mg/kg, po after 15 mins by ELISA
Format: functional
Settings: not given
In the case of `Cc1ccc(NC(=O)c2ccc(CN3CCN(C)CC3)cc2)cc1Nc1nccc(-c2cccnc2)n1` [IMATINIB], the inhibition in vivo at 100 mg/kg is reported as 88%.

— ChEMBL document CHEMBL1158158, “Discovery of a potent and selective c-Kit inhibitor for the treatment of inflammatory diseases” (Bioorg Med Chem Lett, 2008)
